Data from ChEMBL document CHEMBL4507304, “Data for DCP probe TP-021” (2021).

Tests used:
[1] = molecular target: Serine/threonine-protein kinase B-raf (Homo sapiens) (UniProt P15056); conditions: Compound concentration 1000.0 nM
[2] = molecular target: Serine/threonine-protein kinase DCLK2 (Homo sapiens) (UniProt Q8N568); conditions: Compound concentration 1000.0 nM
[3] = molecular target: Casein kinase I isoform gamma-3 (Homo sapiens) (UniProt Q9Y6M4); conditions: Compound concentration 1000.0 nM
[4] = system: Epidermal growth factor receptor (Homo sapiens), P00533 [L858R]; conditions: Compound concentration 1000.0 nM
[5] = molecular target: Tyrosine-protein kinase SYK (Homo sapiens) (UniProt P43405); conditions: Compound concentration 1000.0 nM
[6] = molecular target: Mitogen-activated protein kinase kinase kinase kinase 4 (Homo sapiens) (UniProt O95819); conditions: Compound concentration 1000.0 nM
[7] = molecular target: TGF-beta receptor type-1 (Homo sapiens) (UniProt P36897); conditions: Compound concentration 1000.0 nM
[8] = molecular target: Serine/threonine-protein kinase TBK1 (Homo sapiens) (UniProt Q9UHD2); conditions: Compound concentration 1000.0 nM
[9] = molecular target: Non-receptor tyrosine-protein kinase TYK2 (Homo sapiens) (UniProt P29597); conditions: Compound concentration 1000.0 nM
[10] = molecular target: Myosin light chain kinase family member 4 (Homo sapiens) (UniProt Q86YV6); conditions: Compound concentration 1000.0 nM
[11] = molecular target: cGMP-dependent protein kinase 2 (Homo sapiens) (UniProt Q13237); conditions: Compound concentration 1000.0 nM
[12] = molecular target: TRAF2 and NCK-interacting protein kinase (Homo sapiens) (UniProt Q9UKE5); conditions: Compound concentration 1000.0 nM
[13] = molecular target: Serine/threonine-protein kinase Nek2 (Homo sapiens) (UniProt P51955); conditions: Compound concentration 1000.0 nM
[14] = molecular target: Ephrin type-A receptor 4 (Homo sapiens) (UniProt P54764); conditions: Compound concentration 1000.0 nM
[15] = molecular target: Epithelial discoidin domain-containing receptor 1 (Homo sapiens) (UniProt Q08345); conditions: Compound concentration 1000.0 nM
[16] = molecular target: Serine/threonine-protein kinase LATS1 (Homo sapiens) (UniProt O95835); conditions: Compound concentration 1000.0 nM
Chain of Serine/threonine-protein kinase LATS1 (Homo sapiens) (O95835 whole entry): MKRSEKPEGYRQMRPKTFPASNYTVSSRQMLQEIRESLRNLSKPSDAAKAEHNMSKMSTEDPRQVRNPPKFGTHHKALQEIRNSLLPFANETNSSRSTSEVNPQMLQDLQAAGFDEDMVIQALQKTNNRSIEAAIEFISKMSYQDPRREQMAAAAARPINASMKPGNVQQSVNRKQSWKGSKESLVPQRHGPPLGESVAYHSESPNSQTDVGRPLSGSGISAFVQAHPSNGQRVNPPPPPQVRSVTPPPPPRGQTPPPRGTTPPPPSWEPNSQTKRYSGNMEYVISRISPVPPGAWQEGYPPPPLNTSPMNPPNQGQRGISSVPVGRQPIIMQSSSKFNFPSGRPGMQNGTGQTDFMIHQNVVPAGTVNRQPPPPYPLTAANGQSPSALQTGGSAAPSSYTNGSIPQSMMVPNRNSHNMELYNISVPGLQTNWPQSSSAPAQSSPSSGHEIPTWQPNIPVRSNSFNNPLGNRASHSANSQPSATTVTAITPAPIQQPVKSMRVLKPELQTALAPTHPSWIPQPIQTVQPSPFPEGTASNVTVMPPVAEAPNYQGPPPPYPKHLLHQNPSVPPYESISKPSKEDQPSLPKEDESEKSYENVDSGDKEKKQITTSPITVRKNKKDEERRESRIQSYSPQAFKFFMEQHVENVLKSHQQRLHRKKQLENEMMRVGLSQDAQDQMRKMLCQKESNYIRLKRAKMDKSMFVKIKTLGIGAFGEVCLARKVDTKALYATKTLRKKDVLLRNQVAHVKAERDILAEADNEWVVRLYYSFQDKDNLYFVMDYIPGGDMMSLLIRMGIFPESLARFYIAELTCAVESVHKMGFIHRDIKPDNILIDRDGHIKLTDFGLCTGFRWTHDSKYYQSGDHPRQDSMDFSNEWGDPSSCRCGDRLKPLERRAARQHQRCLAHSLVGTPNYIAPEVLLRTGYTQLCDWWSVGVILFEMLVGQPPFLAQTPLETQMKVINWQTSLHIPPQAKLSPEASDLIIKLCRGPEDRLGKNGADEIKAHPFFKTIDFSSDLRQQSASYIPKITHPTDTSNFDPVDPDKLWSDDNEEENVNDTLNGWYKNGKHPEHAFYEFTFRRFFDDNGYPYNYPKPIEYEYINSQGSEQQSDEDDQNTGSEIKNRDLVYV

[17] = molecular target: Ephrin type-B receptor 2 (Homo sapiens) (UniProt P29323); conditions: Compound concentration 1000.0 nM
[18] = molecular target: Serine/threonine-protein kinase Nek7 (Homo sapiens) (UniProt Q8TDX7); conditions: Compound concentration 1000.0 nM
[19] = system: Tyrosine-protein kinase ABL1 (Homo sapiens), P00519 [T315I]; conditions: Compound concentration 1000.0 nM
[20] = molecular target: Ribosomal protein S6 kinase alpha-1 (Homo sapiens) (UniProt Q15418); conditions: Compound concentration 1000.0 nM
Chain of Ribosomal protein S6 kinase alpha-1 (Homo sapiens) (Q15418 whole entry): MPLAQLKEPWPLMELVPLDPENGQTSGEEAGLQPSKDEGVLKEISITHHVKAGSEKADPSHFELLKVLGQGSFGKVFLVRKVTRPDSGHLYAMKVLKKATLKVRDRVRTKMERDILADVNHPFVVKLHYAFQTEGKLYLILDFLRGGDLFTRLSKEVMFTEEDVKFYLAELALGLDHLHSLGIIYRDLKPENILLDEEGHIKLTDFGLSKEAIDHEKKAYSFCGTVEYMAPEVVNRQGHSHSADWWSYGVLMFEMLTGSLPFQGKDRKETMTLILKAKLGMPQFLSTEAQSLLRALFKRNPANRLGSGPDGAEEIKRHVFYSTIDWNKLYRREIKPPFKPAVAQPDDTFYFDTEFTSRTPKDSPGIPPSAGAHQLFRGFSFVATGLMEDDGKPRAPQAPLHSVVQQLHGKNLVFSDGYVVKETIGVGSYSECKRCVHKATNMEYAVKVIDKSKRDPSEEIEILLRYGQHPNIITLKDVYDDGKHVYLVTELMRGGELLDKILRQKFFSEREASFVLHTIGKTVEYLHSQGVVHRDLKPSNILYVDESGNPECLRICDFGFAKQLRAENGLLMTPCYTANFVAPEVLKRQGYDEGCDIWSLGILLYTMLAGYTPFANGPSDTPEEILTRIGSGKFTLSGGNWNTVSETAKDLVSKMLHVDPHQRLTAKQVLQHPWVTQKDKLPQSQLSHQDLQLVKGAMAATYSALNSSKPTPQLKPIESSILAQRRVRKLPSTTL

[21] = system: Tyrosine-protein kinase ABL1 (Homo sapiens), P00519 [Q252H]; conditions: Compound concentration 1000.0 nM
[22] = molecular target: Casein kinase I isoform gamma-1 (Homo sapiens) (UniProt Q9HCP0); conditions: Compound concentration 1000.0 nM
[23] = molecular target: Dual specificity protein kinase CLK4 (Homo sapiens) (UniProt Q9HAZ1); conditions: Compound concentration 1000.0 nM
[24] = system: Receptor-type tyrosine-protein kinase FLT3 (Homo sapiens), P36888 [UNDEFINED MUTATION]; conditions: Compound concentration 1000.0 nM
[25] = molecular target: Serine/threonine-protein kinase SIK3 (Homo sapiens) (UniProt Q9Y2K2); conditions: Compound concentration 1000.0 nM
Chain of Serine/threonine-protein kinase SIK3 (Homo sapiens) (Q9Y2K2 whole entry, looked up): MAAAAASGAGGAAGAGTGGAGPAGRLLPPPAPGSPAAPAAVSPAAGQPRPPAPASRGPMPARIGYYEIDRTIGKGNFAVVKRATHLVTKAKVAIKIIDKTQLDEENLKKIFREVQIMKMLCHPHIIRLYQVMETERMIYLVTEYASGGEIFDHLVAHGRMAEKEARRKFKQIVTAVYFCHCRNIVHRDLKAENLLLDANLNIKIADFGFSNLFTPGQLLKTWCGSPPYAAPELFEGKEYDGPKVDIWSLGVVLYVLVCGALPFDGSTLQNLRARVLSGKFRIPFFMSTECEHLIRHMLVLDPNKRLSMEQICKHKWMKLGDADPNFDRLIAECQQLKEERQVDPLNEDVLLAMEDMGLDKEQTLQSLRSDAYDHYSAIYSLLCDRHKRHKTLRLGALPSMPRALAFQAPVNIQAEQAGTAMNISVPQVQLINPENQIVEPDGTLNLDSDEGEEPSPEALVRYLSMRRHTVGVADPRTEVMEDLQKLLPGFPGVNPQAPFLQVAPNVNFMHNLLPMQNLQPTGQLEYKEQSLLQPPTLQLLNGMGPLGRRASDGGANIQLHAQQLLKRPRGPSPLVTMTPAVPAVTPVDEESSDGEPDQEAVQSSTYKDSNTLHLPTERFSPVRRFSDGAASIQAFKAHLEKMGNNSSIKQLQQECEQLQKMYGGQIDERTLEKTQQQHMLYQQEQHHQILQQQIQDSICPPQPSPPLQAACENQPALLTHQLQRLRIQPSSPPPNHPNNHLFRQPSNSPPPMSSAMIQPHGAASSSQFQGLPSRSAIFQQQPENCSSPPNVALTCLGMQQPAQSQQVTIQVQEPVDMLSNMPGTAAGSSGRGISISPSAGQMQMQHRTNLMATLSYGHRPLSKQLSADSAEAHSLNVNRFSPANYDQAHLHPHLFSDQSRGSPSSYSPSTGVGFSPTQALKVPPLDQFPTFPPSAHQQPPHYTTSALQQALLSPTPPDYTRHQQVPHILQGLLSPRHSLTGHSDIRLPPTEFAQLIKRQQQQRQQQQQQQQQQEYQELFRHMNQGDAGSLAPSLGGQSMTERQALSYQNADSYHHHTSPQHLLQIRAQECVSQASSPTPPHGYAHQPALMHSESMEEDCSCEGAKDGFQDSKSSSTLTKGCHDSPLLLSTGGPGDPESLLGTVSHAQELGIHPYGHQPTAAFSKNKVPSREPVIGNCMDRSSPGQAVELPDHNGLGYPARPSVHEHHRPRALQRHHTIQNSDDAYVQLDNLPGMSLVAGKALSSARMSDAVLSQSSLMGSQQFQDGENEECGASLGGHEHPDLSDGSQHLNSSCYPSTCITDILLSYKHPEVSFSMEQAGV

[26] = molecular target: Uncharacterized serine/threonine-protein kinase SBK3 (Homo sapiens) (UniProt P0C264); conditions: Compound concentration 1000.0 nM
[27] = molecular target: SNF-related serine/threonine-protein kinase (Homo sapiens) (UniProt Q9NRH2); conditions: Compound concentration 1000.0 nM
[28] = molecular target: Mitogen-activated protein kinase 6 (Homo sapiens) (UniProt Q16659); conditions: Compound concentration 1000.0 nM
[29] = molecular target: Ribosomal protein S6 kinase alpha-1 (Homo sapiens) (UniProt Q15418); conditions: Compound concentration 1000.0 nM; remark: listed apart in the source
[30] = molecular target: Serine/threonine-protein kinase MARK2 (Homo sapiens) (UniProt Q7KZI7); conditions: Compound concentration 1000.0 nM
[31] = molecular target: Activin receptor type-2A (Homo sapiens) (UniProt P27037); conditions: Compound concentration 1000.0 nM
[32] = molecular target: Serine/threonine-protein kinase 24 (Homo sapiens) (UniProt Q9Y6E0); conditions: Compound concentration 1000.0 nM
[33] = molecular target: Beta-1 adrenergic receptor (Homo sapiens) (UniProt P08588); conditions: Compound concentration 10.0 uM
[34] = molecular target: Homeodomain-interacting protein kinase 4 (Homo sapiens) (UniProt Q8NE63); conditions: Compound concentration 1000.0 nM
[35] = molecular target: Muscarinic acetylcholine receptor M1 (Homo sapiens) (UniProt P11229); conditions: Compound concentration 10.0 uM
[36] = molecular target: Cyclin-dependent kinase 17 (Homo sapiens) (UniProt Q00537); conditions: Compound concentration 1000.0 nM
[37] = molecular target: Ephrin type-A receptor 6 (Homo sapiens) (UniProt Q9UF33); conditions: Compound concentration 1000.0 nM
[38] = molecular target: NUAK family SNF1-like kinase 1 (Homo sapiens) (UniProt O60285); conditions: Compound concentration 1000.0 nM
[39] = system: Phosphatidylinositol 4,5-bisphosphate 3-kinase catalytic subunit alpha isoform (Homo sapiens), P42336 [I800L]; conditions: Compound concentration 1000.0 nM
[40] = molecular target: Serine/threonine-protein kinase D2 (Homo sapiens) (UniProt Q9BZL6); conditions: Compound concentration 1000.0 nM
Chain of Serine/threonine-protein kinase D2 (Homo sapiens) (Q9BZL6 whole entry): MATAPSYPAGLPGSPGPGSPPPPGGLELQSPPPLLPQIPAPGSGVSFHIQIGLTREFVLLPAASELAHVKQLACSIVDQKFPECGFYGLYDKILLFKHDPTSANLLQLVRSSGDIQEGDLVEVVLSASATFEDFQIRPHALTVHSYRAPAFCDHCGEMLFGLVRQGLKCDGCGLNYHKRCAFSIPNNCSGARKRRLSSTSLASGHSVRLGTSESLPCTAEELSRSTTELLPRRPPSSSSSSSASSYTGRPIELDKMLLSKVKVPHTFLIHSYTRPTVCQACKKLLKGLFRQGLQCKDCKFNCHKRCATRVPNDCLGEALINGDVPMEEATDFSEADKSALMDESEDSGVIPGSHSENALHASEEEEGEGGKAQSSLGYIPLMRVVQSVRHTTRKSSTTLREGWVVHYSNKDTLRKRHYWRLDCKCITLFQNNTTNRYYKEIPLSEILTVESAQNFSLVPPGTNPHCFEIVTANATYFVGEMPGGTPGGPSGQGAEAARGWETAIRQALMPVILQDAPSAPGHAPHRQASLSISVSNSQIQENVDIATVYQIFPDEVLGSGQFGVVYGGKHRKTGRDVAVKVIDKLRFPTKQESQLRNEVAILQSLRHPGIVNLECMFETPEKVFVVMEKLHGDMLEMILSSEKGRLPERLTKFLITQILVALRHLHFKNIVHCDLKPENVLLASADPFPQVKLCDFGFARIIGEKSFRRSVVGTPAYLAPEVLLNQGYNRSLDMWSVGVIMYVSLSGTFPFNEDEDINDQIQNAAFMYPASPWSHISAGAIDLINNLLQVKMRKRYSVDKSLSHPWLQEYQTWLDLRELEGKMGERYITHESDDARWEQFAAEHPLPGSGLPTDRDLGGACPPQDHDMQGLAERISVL

[41] = molecular target: Dual specificity protein kinase CLK3 (Homo sapiens) (UniProt P49761); conditions: Compound concentration 1000.0 nM
[42] = molecular target: Calcium/calmodulin-dependent protein kinase type II subunit delta (Homo sapiens) (UniProt Q13557); conditions: Compound concentration 1000.0 nM
Chain of Calcium/calmodulin-dependent protein kinase type II subunit delta (Homo sapiens) (Q13557 whole entry): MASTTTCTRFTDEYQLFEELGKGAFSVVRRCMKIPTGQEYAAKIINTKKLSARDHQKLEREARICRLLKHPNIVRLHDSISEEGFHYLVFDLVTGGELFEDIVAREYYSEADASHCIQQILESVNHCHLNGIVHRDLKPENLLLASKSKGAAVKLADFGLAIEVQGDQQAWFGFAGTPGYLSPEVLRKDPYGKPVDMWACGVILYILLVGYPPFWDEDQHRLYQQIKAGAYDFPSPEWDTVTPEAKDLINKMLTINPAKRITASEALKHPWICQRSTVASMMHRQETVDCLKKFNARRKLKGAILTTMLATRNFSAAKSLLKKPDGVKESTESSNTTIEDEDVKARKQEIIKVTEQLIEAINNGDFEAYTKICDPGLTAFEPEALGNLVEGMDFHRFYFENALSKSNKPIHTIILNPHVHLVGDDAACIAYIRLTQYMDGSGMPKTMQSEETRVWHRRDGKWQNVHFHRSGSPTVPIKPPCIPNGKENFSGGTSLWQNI

[43] = molecular target: Serine/threonine-protein kinase 35 (Homo sapiens) (UniProt Q8TDR2); conditions: Compound concentration 1000.0 nM
Chain of Serine/threonine-protein kinase 35 (Homo sapiens) (Q8TDR2 whole entry): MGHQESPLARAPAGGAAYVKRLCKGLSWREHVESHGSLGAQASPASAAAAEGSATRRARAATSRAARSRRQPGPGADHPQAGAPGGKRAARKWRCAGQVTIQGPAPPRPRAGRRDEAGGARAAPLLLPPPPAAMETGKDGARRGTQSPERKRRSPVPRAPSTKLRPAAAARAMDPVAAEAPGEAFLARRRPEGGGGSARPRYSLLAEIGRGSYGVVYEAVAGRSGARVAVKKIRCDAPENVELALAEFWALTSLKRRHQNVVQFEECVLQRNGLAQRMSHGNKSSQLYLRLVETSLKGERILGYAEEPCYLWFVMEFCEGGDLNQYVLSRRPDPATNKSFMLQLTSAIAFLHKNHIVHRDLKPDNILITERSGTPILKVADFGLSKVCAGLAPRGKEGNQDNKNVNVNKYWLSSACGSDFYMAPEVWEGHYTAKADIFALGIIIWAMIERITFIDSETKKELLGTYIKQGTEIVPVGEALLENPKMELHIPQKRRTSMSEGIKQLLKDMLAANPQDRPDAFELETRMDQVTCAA

[44] = molecular target: Serine/threonine-protein kinase MARK1 (Homo sapiens) (UniProt Q9P0L2); conditions: Compound concentration 1000.0 nM
[45] = molecular target: Phosphatidylinositol 4-kinase beta (Homo sapiens) (UniProt Q9UBF8); conditions: Compound concentration 1000.0 nM

O=C1CCc2cc(Nc3cc(OC4CCOCC4)c([N+](=O)[O-])cc3Cl)ccc2N1
inactive: residual activity [1] 100% | residual activity [2] 100% | residual activity [3] 67% | residual activity [4] 100% | residual activity [5] 100% | residual activity [6] 100% | residual activity [7] 100% | residual activity [8] 100% | residual activity [9] 100% | residual activity [10] 96% | residual activity [11] 85% | residual activity [12] 100% | residual activity [13] 95% | residual activity [14] 84% | residual activity [15] 94% | residual activity [16] 81% | residual activity [17] 96% | residual activity [18] 87% | residual activity [19] 80% | residual activity [20] 100% | residual activity [21] 79% | residual activity [22] 97% | residual activity [23] 88% | residual activity [24] 100% | residual activity [25] 75% | residual activity [26] 100% | residual activity [27] 100% | residual activity [28] 100% | residual activity [29] 100% | residual activity [30] 71% | residual activity [31] 81% | residual activity [32] 97% | inhibition [33] 3.3% | residual activity [34] 98% | inhibition [35] -4.43% | residual activity [36] 91% | residual activity [37] 80% | residual activity [38] 100% | residual activity [39] 63% | residual activity [40] 85% | residual activity [41] 100% | residual activity [42] 100% | residual activity [43] 100% | residual activity [44] 99% | residual activity [45] 100%

N#Cc1ccc(Nc2ccc3[nH]c(=O)[nH]c3c2)c(Cl)c1
inactive: residual activity [1] 100% | residual activity [2] 100% | residual activity [3] 99% | residual activity [4] 100% | residual activity [5] 100% | residual activity [6] 77% | residual activity [7] 100% | residual activity [8] 100% | residual activity [9] 100% | residual activity [10] 100% | residual activity [11] 87% | residual activity [12] 99% | residual activity [13] 93% | residual activity [14] 100% | residual activity [15] 100% | residual activity [16] 76% | residual activity [17] 70% | residual activity [18] 100% | residual activity [19] 93% | residual activity [20] 93% | residual activity [21] 89% | residual activity [22] 100% | residual activity [23] 98% | residual activity [24] 100% | residual activity [25] 75% | residual activity [26] 96% | residual activity [27] 100% | residual activity [28] 100% | residual activity [29] 100% | residual activity [30] 78% | residual activity [31] 70% | residual activity [32] 100% | inhibition [33] 4.98% | residual activity [34] 100% | inhibition [35] -9.92% | residual activity [36] 100% | residual activity [37] 82% | residual activity [38] 100% | residual activity [39] 77% | residual activity [40] 100% | residual activity [41] 96% | residual activity [42] 100% | residual activity [43] 100% | residual activity [44] 90% | residual activity [45] 100%
